Measurements: paper PMC4508201 (Organic & biomolecular chemistry, 2015)
Like-named read-outs stand apart in the source and are kept apart here.

Experiments:
recombinant human S1PR2 = recombinant human S1PR2 (Homo sapiens, UniProt O95136); test: [32P]S1P competitive cell membrane binding assay, S1PR2
S1PR1 = S1PR1 (Homo sapiens, UniProt P21453); test: [32P]S1P competitive cell membrane binding assay, S1PR1
S1PR3 = S1PR3 (Homo sapiens, UniProt Q99500); test: [32P]S1P competitive cell membrane binding assay, S1PR3
S1PR3, sequence (Q99500 whole entry, species assumed): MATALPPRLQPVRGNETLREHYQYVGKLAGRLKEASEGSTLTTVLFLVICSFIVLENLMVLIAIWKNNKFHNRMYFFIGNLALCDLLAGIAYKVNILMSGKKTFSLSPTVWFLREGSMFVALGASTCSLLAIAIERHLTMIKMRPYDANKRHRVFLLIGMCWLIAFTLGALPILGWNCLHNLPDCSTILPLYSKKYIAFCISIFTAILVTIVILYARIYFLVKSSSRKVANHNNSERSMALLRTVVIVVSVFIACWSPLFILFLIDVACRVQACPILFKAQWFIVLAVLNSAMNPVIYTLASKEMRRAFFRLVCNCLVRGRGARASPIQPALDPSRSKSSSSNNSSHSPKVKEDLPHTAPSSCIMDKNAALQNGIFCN

[1] = IC50 S1PR2, competition against [32P]S1P, CHO cell membrane

recombinant human S1PR2, sequence (O95136 whole entry): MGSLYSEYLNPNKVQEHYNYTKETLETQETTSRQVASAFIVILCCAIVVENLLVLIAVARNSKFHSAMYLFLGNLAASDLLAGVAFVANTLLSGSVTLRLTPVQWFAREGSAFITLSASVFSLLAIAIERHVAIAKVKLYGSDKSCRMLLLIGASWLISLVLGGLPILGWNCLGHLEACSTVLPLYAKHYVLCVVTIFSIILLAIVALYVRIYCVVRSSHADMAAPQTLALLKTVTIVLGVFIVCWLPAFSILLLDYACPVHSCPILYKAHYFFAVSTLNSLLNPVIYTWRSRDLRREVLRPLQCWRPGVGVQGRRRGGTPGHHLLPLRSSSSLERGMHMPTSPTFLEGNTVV
S1PR1, sequence (P21453 whole entry, species assumed): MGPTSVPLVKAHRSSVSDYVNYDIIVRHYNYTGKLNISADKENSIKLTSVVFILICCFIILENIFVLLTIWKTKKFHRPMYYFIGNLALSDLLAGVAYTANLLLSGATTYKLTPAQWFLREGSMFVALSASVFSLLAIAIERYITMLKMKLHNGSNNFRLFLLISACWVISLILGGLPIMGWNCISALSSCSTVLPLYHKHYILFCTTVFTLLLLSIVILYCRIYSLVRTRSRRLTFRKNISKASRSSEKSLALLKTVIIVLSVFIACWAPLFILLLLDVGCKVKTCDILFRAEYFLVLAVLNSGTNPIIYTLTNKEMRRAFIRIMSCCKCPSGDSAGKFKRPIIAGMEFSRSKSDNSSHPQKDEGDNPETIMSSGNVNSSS

| SMILES | IC50 (recombinant human S1PR2; [1]) | IC50 (S1PR1) | IC50 (S1PR3) | IC50 S1PR2 (recombinant human S1PR2; competition against [32P]S1P, CHO cell membrane) | Binding potency for S1PR2 relative to JTE-013 (recombinant human S1PR2; ratio of IC50 values) | IC50 (recombinant human S1PR2; read-out: IC50 S1PR2, competition against [32P]S1P, CHO cell membrane) | IC50 (S1PR1; read-out: IC50 S1PR1, competition against [32P]S1P) | IC50 (S1PR3; read-out: IC50 S1PR3, competition against [32P]S1P) |
| --- | --- | --- | --- | --- | --- | --- | --- | --- |
| COc1cc(NC(=O)NNc2cc(C(C)C)c3c(C)nn(C)c3n2)cc(Cl)n1 [Compound 5a, N-(2-Chloro-6-methoxypyridin-4-yl)-2-(4-isopropyl-1,3-dimethyl-1H-pyrazolo[3,4-b]pyridin-6-yl)hydrazine-1-carboxamide] | 9.52 ± 0.7 nM | > 1000 nM | > 1000 nM |  | seven-fold more potent |  |  |  |
| COCOc1cc(NC(=O)NNc2cc(C(C)C)c3c(C)nn(C)c3n2)cc(Cl)n1 [Compound 5e, N-(2-Chloro-6-(methoxymethoxy)pyridin-4-yl)-2-(4-isopropyl-1,3-dimethyl-1H-pyrazolo[3,4-b]pyridin-6-yl)hydrazine-1-carboxamide] | 8.09 ± 0.91 nM | > 1000 nM | > 1000 nM |  |  |  |  |  |
| Cc1nn(C)c2nc(NNC(=O)Nc3cc(Cl)nc(Cl)c3)cc(C(C)C)c12 [JTE-013, reference compound] |  |  |  |  |  | 68.5 ± 7.45 nM | > 1000 nM | > 1000 nM |

Second part, led by results:

| IC50 (recombinant human S1PR2; [1]) | IC50 (S1PR1) | IC50 (S1PR3) | IC50 S1PR2 (recombinant human S1PR2; competition against [32P]S1P, CHO cell membrane) | SMILES | Binding potency for S1PR2 relative to JTE-013 (recombinant human S1PR2; ratio of IC50 values) | IC50 (recombinant human S1PR2; read-out: IC50 S1PR2, competition against [32P]S1P, CHO cell membrane) | IC50 (S1PR1; read-out: IC50 S1PR1, competition against [32P]S1P) | IC50 (S1PR3; read-out: IC50 S1PR3, competition against [32P]S1P) |
| --- | --- | --- | --- | --- | --- | --- | --- | --- |
| 135 nM | > 1000 nM | > 1000 nM |  | Cc1nn(C)c2nc(NNC(=O)Nc3cc(F)nc(Cl)c3)cc(C(C)C)c12 [Compound 5b, N-(2-Chloro-6-fluoropyridin-4-yl)-2-(4-isopropyl-1,3-dimethyl-1H-pyrazolo[3,4-b]pyridin-6-yl)hydrazine-1-carboxamide] |  |  |  |  |
| 234 nM | > 1000 nM | > 1000 nM |  | COCCOc1cc(NC(=O)NNc2cc(C(C)C)c3c(C)nn(C)c3n2)cc(Cl)n1 [Compound 5c, N-(2-Chloro-6-(2-methoxyethoxy)pyridin-4-yl)-2-(4-isopropyl-1,3-dimethyl-1H-pyrazolo[3,4-b]pyridin-6-yl)hydrazine-1-carboxamide] |  |  |  |  |
| > 1000 nM | > 1000 nM | > 1000 nM | No binding potency | COCn1c(Cl)cc(NC(=O)NNc2cc(C(C)C)c3c(C)nn(C)c3n2)cc1=O [Compound 5d, N-(6-Chloro-1-(methoxymethyl)-2-oxo-1,2-dihydropyridin-4-yl)-2-(4-isopropyl-1,3-dimethyl-1H-pyrazolo[3,4-b]pyridin-6-yl)hydrazine-1-carboxamide] |  |  |  |  |
| 8.12 ± 0.62 nM | > 1000 nM | > 1000 nM |  | Cc1nn(C)c2nc(NNC(=O)Nc3cc(Cl)nc(OCCF)c3)cc(C(C)C)c12 [Compound 5f, N-(2-Chloro-6-(2-fluoroethoxy)pyridin-4-yl)-2-(4-isopropyl-1,3-dimethyl-1H-pyrazolo[3,4-b]pyridin-6-yl)hydrazine-1-carboxamide] |  |  |  |  |
